The results in this text go back to ChEMBL document CHEMBL1208719, “Design and synthesis of 4-[3,5-dioxo-11-oxa-4,9-diazatricyclo[5.3.1.0(2,6)]undec-4-yl]-2-trifluoromethyl-benzonitriles as androgen receptor antagonists” (Bioorg Med Chem Lett, 2010).

Structures are written as SMILES.

In one data set the test system is LNCaP. As to the kind of experiment: Cytotoxicity against human LNCAP cells assessed as inhibition of DHT-induced cell growth at 5 uM. Format: functional.
For data set [1], the target named is T1, Androgen receptor (Homo sapiens, UniProt P10275).
T1 sequence (P10275 whole entry): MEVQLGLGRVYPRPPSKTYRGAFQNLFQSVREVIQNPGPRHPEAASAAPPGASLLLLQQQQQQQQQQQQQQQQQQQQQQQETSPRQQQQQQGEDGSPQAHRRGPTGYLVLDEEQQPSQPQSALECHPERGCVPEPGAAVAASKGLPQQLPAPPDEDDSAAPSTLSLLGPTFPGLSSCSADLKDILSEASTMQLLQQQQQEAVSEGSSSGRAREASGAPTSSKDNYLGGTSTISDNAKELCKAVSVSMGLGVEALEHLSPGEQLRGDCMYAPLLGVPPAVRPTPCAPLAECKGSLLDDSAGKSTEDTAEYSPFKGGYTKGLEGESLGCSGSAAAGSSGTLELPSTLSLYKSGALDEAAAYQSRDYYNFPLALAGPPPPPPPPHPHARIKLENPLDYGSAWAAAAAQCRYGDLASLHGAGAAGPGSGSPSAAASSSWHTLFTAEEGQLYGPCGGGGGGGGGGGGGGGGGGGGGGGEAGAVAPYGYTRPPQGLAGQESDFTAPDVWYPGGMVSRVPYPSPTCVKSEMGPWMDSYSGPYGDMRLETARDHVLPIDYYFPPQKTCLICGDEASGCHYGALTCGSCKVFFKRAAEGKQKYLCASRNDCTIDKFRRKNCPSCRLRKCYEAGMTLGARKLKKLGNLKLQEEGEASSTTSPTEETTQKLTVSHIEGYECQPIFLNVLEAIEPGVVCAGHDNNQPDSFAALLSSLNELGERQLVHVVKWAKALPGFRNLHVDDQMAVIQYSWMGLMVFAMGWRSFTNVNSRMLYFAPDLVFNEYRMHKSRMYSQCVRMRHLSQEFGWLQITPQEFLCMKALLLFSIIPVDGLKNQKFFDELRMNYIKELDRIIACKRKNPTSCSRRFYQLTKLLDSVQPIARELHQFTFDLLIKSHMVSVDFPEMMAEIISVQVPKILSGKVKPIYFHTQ
Description: Antagonist activity at wild type human AR expressed in human LNCAP cells by transactivation assay

For another data set, the system named is MDA-MB-435. As to the kind of experiment: Cytotoxicity against human MDA-MB-435 cells assessed as inhibition of DHT-induced cell growth at 5 uM. The format is functional.
The target in data set [2] is T1, Androgen receptor. As to the kind of experiment: Displacement of [3H]DHT from AR in human MDA-MB-453 cells. For orientation: In a radioligand displacement assay an active substance lowers the binding of a labelled ligand.
Data set [3] deals with T1, Androgen receptor. This is another data set of the same source.
Description: Antagonist activity at human wild type AR expressed in human MDA-MB-435 cells by transactivation assay
Data set [4] is described as follows: Metabolic stability in mouse liver microsomes assessed as compound remaining at 3 uM after 10 mins. The format is ADME, Microsome. To be noted: read-out: Activity.
Data set [5] can be described thus: Metabolic stability in human liver microsomes assessed as compound remaining at 3 uM after 10 mins. Format: ADME, Microsome. To be noted: read-out: Activity. (Liver microsomes are a subcellular fraction often used to study metabolism.)
Data set [6] is described as follows: Metabolic stability in rat liver microsomes assessed as compound remaining at 3 uM after 10 mins. The conditions noted are these: read-out: Activity. Format: ADME, Microsome.
Data set [7] has as its system Rattus norvegicus. Put plainly: Effect on immature rat prostate weight in rat assessed as ratio of weight of seminal vesicles to full body weight at 1 mg/kg, po qd for 3 days relative to control. The format is functional, Prostate gland.
Data set [8] has as its system Rattus norvegicus. Put plainly: Effect on immature rat prostate weight in rat assessed as ratio of weight of seminal vesicles to full body weight at 30 mg/kg, po qd for 3 days relative to control. The format is functional, Prostate gland.

Broadly, the inhibition is the share of the control response that was lost under treatment. A word on the IC50: it is the concentration that inhibits the measured activity by half. Lower therefore signals greater potency. Usually Ki stands for the dissociation constant of the complex between target and ligand, obtained from inhibition or displacement. `C[C@]12CN(S(=O)(=O)c3ccc(F)cc3)C[C@](C)(O1)[C@@H]1C(=O)N(c3ccc(C#N)c(C(F)(F)F)c3)C(=O)[C@@H]12`: the values for the inhibition at 5 µM in the data set with LNCaP and with MDA-MB-435 were 95% and 100%, respectively. In addition, the IC50 against Androgen receptor [1] was 685 nM; at Androgen receptor [3], 54 nM. For the same molecule, on Androgen receptor [2], the affinity, expressed as Ki, was 32 nM.
As for `C[C@]12CN(S(=O)(=O)c3ccccc3)C[C@](C)(O1)[C@@H]1C(=O)N(c3ccc(C#N)c(C(F)(F)F)c3)C(=O)[C@@H]12`, the inhibition at 5 µM was found to be 91% with LNCaP and 99% in the data set with MDA-MB-435. Moreover, the IC50 against Androgen receptor [1] is 979 nM; on Androgen receptor [3], 99 nM. The molecule further gave a Ki on Androgen receptor [2] of 12 nM.
For the molecule `C[C@]12CN(S(=O)(=O)c3ccccn3)C[C@](C)(O1)[C@@H]1C(=O)N(c3ccc(C#N)c(C(F)(F)F)c3)C(=O)[C@@H]12`, the inhibition at 5 µM with LNCaP worked out at 80%; in the data set on MDA-MB-435, 98%. For the same molecule, the 50% inhibitory concentration (IC50) against Androgen receptor [1] is 1240 nM; against Androgen receptor [3], 170 nM. Moreover, the affinity on Androgen receptor [2], expressed as Ki, was 93 nM.
Consider `C[C@]12CN(c3cccc(S(N)(=O)=O)c3)C[C@](C)(O1)[C@@H]1C(=O)N(c3ccc(C#N)c(C(F)(F)F)c3)C(=O)[C@@H]12`, for which the results for the inhibition at 5 µM with LNCaP and with MDA-MB-435 were 94% and 99%, respectively. Also, the values for the IC50 on Androgen receptor [1] and at Androgen receptor [3] were 337 nM and 37 nM, respectively. Further, the Ki at Androgen receptor [2] was 22 nM.
`C[C@]12CN(c3cccc(S(C)(=O)=O)c3)C[C@](C)(O1)[C@@H]1C(=O)N(c3ccc(C#N)c(C(F)(F)F)c3)C(=O)[C@@H]12`: the inhibition at 5 µM with LNCaP stood at 98%; in the data set on MDA-MB-435, 96%. The remaining at 10 min, 3 µM amounted to 92% in [4], 76% in data set [5] and 100% in data set [6]. Also, the values for the IC50 against Androgen receptor [1] and against Androgen receptor [3] were 150 nM and 7.4 nM, respectively. In addition, the results for the Activity with Rattus norvegicus [7] and in the data set on Rattus norvegicus [8] were 37% and 28%, respectively. Further, the Ki at Androgen receptor [2] came out at 9.4 nM.
For the molecule `C[C@]12CN(c3ncccn3)C[C@](C)(O1)[C@@H]1C(=O)N(c3ccc(C#N)c(C(F)(F)F)c3)C(=O)[C@@H]12`, the inhibition at 5 µM in the data set on LNCaP stood at 97%; in the data set on MDA-MB-435, 99%. The IC50 is 377 nM on Androgen receptor [1] and 31 nM at Androgen receptor [3]. Further, on Androgen receptor [2], the Ki was 6.1 nM.
